From patent publication US4758555A, “Method for treating convulsions and epilepsy with organic copper compounds” (priority 1986, dated 1988)

Key:
[1] = Maximal Electroshock Seizure Test; type: in vivo, male Carworth Farms #1 mice or Sprague-Dawley rats; conditions: for ED50: Mus musculus, read-out: ED50 for inhibition of seizures, MES (Phase II)
[2] = Subcutaneous Pentylenetetrazol (Metrazol) Seizure Threshold Test; type: in vivo, male Carworth Farms #1 mice or Sprague-Dawley rats; conditions: for Lowest effective dose, Metrazol (Phase I): Table X; for Protection against Metrazol-induced seizures (in words): running text; for Anticonvulsant activity, Metrazol (Phase I): Table IV
[3] = Table X, IP, challenge time 30 min
[4] = Table X, IP, challenge time 4 hrs
[5] = Table X, SC, challenge time 30 min
[6] = Table X, SC, challenge time 4 hrs

Row | Compound | Lowest effective dose, MES (Phase I) [1, 3] | Lowest effective dose, MES (Phase I) [1, 4] | Lowest effective dose, MES (Phase I) [1, 5] | Lowest effective dose, MES (Phase I) [1, 6] | Lowest effective dose, Metrazol (Phase I) ([2]; IP, challenge time 30 min) | Lowest effective dose, Metrazol (Phase I) ([2]; IP, challenge time 4 hrs) | Lowest effective dose, Metrazol (Phase I) ([2]; SC, challenge time 30 min) | Lowest effective dose, Metrazol (Phase I) ([2]; SC, challenge time 4 hrs) | other results
1 | CCC1(CCC(C)C)C(=O)[N-]C(=O)NC1=O.CCC1(CCC(C)C)C(=O)[N-]C(=O)NC1=O.O.O.[Cu+2] [Cu(II)(Amobarbital)2 (H2 O)2] | 100 milligrams per kilogram of bod | I | 300 milligrams per kilogram of bod | I | 100 milligrams per kilogram of bod | I | 100 milligrams per kilogram of bod | I | 
2 | O=C1CN=C(c2ccccc2Cl)c2cc([N+](=O)[O-])ccc2N1 [Clonazepam, reference compound] |  |  |  |  |  |  |  |  | ED50 ([1]; ip): 19 mg/kg; ED50 ([2]; Mus musculus, ip, read-out: ED50 for inhibition of seizures, Metrazol (Phase II)): 0.2 mg/kg
3 | CC(C)[C@H](N)C(=O)[O-].CC(C)[C@H](N)C(=O)[O-].O.[Cu+2] [Cu(II)(L-valinate)2 H2 O] |  |  |  |  |  |  |  |  | Protection against Metrazol-induced seizures (in words) [2]: effective against the Metrazol-induced seizure at all doses studied and at both time intervals, 30 minutes and 4 hours
4 | C[C@@H](O)[C@H](N)C(=O)[O-].N[C@@H](CO)C(=O)[O-].[Cu+2] [Cu(II)(L-threoninate)(L-serinate)] |  |  |  |  |  |  |  |  | Protection against Metrazol-induced seizures (in words) [2]: effective against the Metrazol-induced seizure at all doses studied and at both time intervals, 30 minutes and 4 hours
5 | CCC1(CCC(C)C)C(=O)[N-]C(=O)NC1=O.CCC1(CCC(C)C)C(=O)[N-]C(=O)NC1=O.[Cu+2].c1ccncc1.c1ccncc1 [Cu(II)(Amobarbital)2 (pyridine)2] | 300 milligrams per kilogram of bod | 300 milligrams per kilogram of bod | I | 100 milligrams per kilogram of bod | 100 milligrams per kilogram of bod | 30 milligrams per kilogram of bod | 600 milligrams per kilogram of bod | 600 milligrams per kilogram of bod | 
6 | CCC1(CCC(C)C)C(=O)[N-]C(=O)NC1=O.CCC1(CCC(C)C)C(=O)[N-]C(=O)NC1=O.[Cu+2].c1c[nH]cn1.c1c[nH]cn1 [Cu(II)(Amobarbital)2 (imidazole)2] | 600 milligrams per kilogram of bod | I | I | I | 300 milligrams per kilogram of bod | I | I | 600 milligrams per kilogram of bod | 
7 | N[C@@H](Cc1ccccc1)C(=O)[O-].N[C@@H](Cc1ccccc1)C(=O)[O-].[Cu+2] [Cu(II)(L-phenylalaninate)2] |  |  |  |  |  |  |  |  | Protection against Metrazol-induced seizures (in words) [2]: effective against the Metrazol-inducedseizure at all three doses studied but only at the shorter time period
8 | CC(=O)Oc1ccccc1C(=O)[O-].CC(=O)Oc1ccccc1C(=O)[O-].CS(C)=O.CS(C)=O.[Cu+2] [Cu(II)(acetylsalicylate)2 (dimethylsulfoxide)2] |  |  |  |  |  |  |  |  | Anticonvulsant activity, Maximal Electroshock (Phase I) ([1]; Table I, SC): I
9 | CC(=O)Oc1ccccc1C(=O)O [Aspirin, acetylsalicylate, reference compound] |  |  |  |  |  |  |  |  | Anticonvulsant activity, Maximal Electroshock ([1]; Table VI, IP): I; Anticonvulsant activity, Metrazol ([2]; Table VI, IP): I
10 | Cu(II)5-ethyl-5-phenylhydantoin(H2 O)2.5 | 100 milligrams per kilogram of bod | 100 milligrams per kilogram of bod | 100 milligrams per kilogram of bod | 30 milligrams per kilogram of bod | 300 milligrams per kilogram of bod | 100 milligrams per kilogram of bod | 30 milligrams per kilogram of bod | 100 milligrams per kilogram of bod | 
11 | C[C@H](N)C(=O)[O-].C[C@H](N)C(=O)[O-].[Cu+2] [Cu(II)(L-alaninate)2] |  |  |  |  |  |  |  |  | Protection against Metrazol-induced seizures (in words) [2]: effective against the Metrazol-induced seizure at all doses studied and at both time intervals, 30 minutes and 4 hours
12 | C[C@@H](O)[C@H](N)C(=O)[O-].C[C@@H](O)[C@H](N)C(=O)[O-].O.[Cu+2] [Cu(II)(L-threoninate)2 H2 O] |  |  |  |  |  |  |  |  | Protection against Metrazol-induced seizures (in words) [2]: effective against the Metrazol-induced seizure at all doses studied and at both time intervals, 30 minutes and 4 hours
13 | Cu(II) Salicylidene-L-histidinate |  |  |  |  |  |  |  |  | Anticonvulsant activity, Maximal Electroshock (Phase I) ([1]; Table IV, IP): I; Anticonvulsant activity, Maximal Electroshock (Phase I) ([1]; Table IV, SC): I; Anticonvulsant activity, Metrazol (Phase I) ([2]; IP): I
14 | Cu(II)5-ethyl-5-phenylhydantoin(CH3 OH) | 100 milligrams per kilogram of bod | 100 milligrams per kilogram of bod | 100 milligrams per kilogram of bod | 30 milligrams per kilogram of bod | 100 milligrams per kilogram of bod | I | 100 milligrams per kilogram of bod | 300 milligrams per kilogram of bod | 
15 | CCC1(c2ccccc2)C(=O)[N-]C(=O)NC1=O.CCC1(c2ccccc2)C(=O)[N-]C(=O)NC1=O.[Cu+2].c1c[nH]cn1.c1c[nH]cn1 [Cu(II)(Phenobarbital)2 (imidazole)2] | 100 milligrams per kilogram of bod | 100 milligrams per kilogram of bod | I | 100 milligrams per kilogram of bod | 300 milligrams per kilogram of bod | 30 milligrams per kilogram of bod | 100 milligrams per kilogram of bod | 100 milligrams per kilogram of bod | 
16 | Cu(II)n (Phenobarbital)n (pyridine)2n (H2 O)3n |  |  |  |  |  |  | 30 milligrams per kilogram of bod | 30 milligrams per kilogram of bod | 
17 | CCC1(c2ccccc2)NC(=O)NC1=O.CO.[OH][Cu][Cl] (stereo not shown) [Cu(II)5-ethyl-5-phenylhydantoin(HO)(Cl)(CH3 OH)] | 30 milligrams per kilogram of bod | I |  |  | 30 milligrams per kilogram of bod | I |  |  | 
18 | [Cu+2].[O-]c1ccccc1C=NCCN=Cc1ccccc1[O-] [Cu(II) bissalicylatoethyleneimine] |  |  |  |  |  |  |  |  | Anticonvulsant activity, Maximal Electroshock (Phase I) ([1]; Table IV, IP): I; Anticonvulsant activity, Maximal Electroshock (Phase I) ([1]; Table IV, SC): I; Anticonvulsant activity, Metrazol (Phase I) ([2]; SC): I
19 | CCCC(C)C1(CC)C(=O)N=C([S-])NC1=O.CCCC(C)C1(CC)C(=O)N=C([S-])NC1=O.O.O.[Cu+2] (stereo not shown) [Cu(II)(S--thiopental)2 (H2 O)2] | I | I | I | I | I | I | I | I | 
20 | CCCC(C)C1(CC)C(=O)[N-]C(=S)NC1=O.CCCC(C)C1(CC)C(=O)[N-]C(=S)NC1=O.[Cu+2] (stereo not shown) [Cu(II)(N--thiopental)2 (H2 O)2.5] | I | I | I | I | I | I | I | 30 milligrams per kilogram of bod | 
21 | C[C@@H](O)[C@H](N)C(=O)[O-].C[C@H](N)C(=O)[O-].[Cu+2] [Cu(II)(L-threoninate)(L-alaninate)] |  |  |  |  |  |  |  |  | Protection against Metrazol-induced seizures (in words) [2]: effective against the Metrazol-induced seizure at all doses studied and at both time intervals, 30 minutes and 4 hours
22 | Cu(II)n (Phenobarbital)n (H2 O)2n (H2 O)3n |  |  | 100 milligrams per kilogram of bod | 30 milligrams per kilogram of bod |  |  | 30 milligrams per kilogram of bod | 30 milligrams per kilogram of bod | 
23 | CC(=O)Oc1ccccc1C(=O)[O-].CC(=O)Oc1ccccc1C(=O)[O-].[Cu+2].c1ccncc1.c1ccncc1 [Cu(II)(acetylsalicylate)2 (pyridine)2] |  |  |  |  |  |  |  |  | Anticonvulsant activity, Maximal Electroshock (Phase I) ([1]; Table I, SC): I
24 | CCC1(c2ccccc2)C(=O)[N-]C(=O)NC1=O.CCC1(c2ccccc2)C(=O)[N-]C(=O)NC1=O.CCC1(c2ccccc2)C(=O)[N-]C(=O)NC1=O.CCC1(c2ccccc2)C(=O)[N-]C(=O)NC1=O.O.O.O.O.O.O.O.O.O.O.O.[Cu+2].[Cu+2] [Cu(II)(Phenobarbital)2 (H2 O)5.5] | 30 milligrams per kilogram of bod | 30 milligrams per kilogram of bod | 30 milligrams per kilogram of bod | 30 milligrams per kilogram of bod | 5 milligrams per kilogram of bod | 5 milligrams per kilogram of bod | 30 milligrams per kilogram of bod | 30 milligrams per kilogram of bod | 
25 | Cu(II)(L-cystinate)2 H2 O |  |  |  |  |  |  |  |  | Protection against Metrazol-induced seizures (in words) [2]: effective against the Metrazol-inducedseizure at all three doses studied but only at the shorter time period
26 | NC(=O)N1c2ccccc2C=Cc2ccccc21 [Carbamazepine, reference compound] |  |  |  |  |  |  |  |  | ED50 ([1]; Table X, IP, at time of peak activity): 9 mg/kg
27 | O=C([O-])c1cc(Cl)ccc1O.O=C([O-])c1cc(Cl)ccc1O.[Cu+2] [Cu(II)(5-chlorosalicylate)2] |  |  |  |  |  |  |  |  | Anticonvulsant activity, Maximal Electroshock (Phase I) ([1]; Table II, IP): I
